Data taken from article PMC8605905 (Oxidative Medicine and Cellular Longevity, 2021).

Columns and labels:
physchem = type: physicochemical; conditions: aqueous buffer
Method: The coumarin-chalcone derivatives (E)-4-hydroxy-3-(3-(p-tolyl)acryloyl)-2H-chromen-2-one (LM-016), (E)-3-(3-(4-(dimethylamino)phenyl)acryloyl)-4-hydroxy-2H-chromen-2-one (LM-021), and (E)-3-(3-(furan-2-yl)acryloyl)-4-hydroxy-2H-chromen-2-one (LM-022) were synthesized in our laboratory as previously described and examined by using NMR spectroscopy. The LM-016, LM-021, and LM-022 stayed soluble in cell culture medium at concentrations up to 100 μM.

[1] = tested on: ∆K280 tauRD-DsRed SH-SY5Y cells; experiment: Western blot in ΔK280 tauRD-DsRed SH-SY5Y cells; type: cell-based, Human; conditions: LM-021 10 μM, immunoblot
Method: To monitor the cAMP-mediated signal transduction pathway, CRE-GFP 293 cells in 6-well plates (1 × 10^6/well) were pretreated with kinase inhibitor H-89 (LC Laboratories, Woburn, MA, USA), KN-62 (Cayman Chemical, Ann Arbor, MI, USA), U0126 (LC Laboratories), or wortmannin (LC Laboratories) (10 μM) for 4 h before forskolin or LM-021 (10 μM) addition for 5 h. GFP fluorescence/protein and total/phosphorylated PKA, CaMKII, ERK, PI3K, and CREB levels were examined. In addition, Aβ-GFP or ∆K280 tauRD-DsRed SH-SY5Y cells were treated with retinoic acid (10 μM) on day 1, followed by the addition of LM-021 (5 or 10 μM) and doxycycline (5 or 2 μg/ml) on day 2, as described. Kinase inhibitors (10 μM) were added on day 6. On day 8, the cells were collected for protein expression analysis of BDNF, BCL2 (BCL2 apoptosis regulator), and BAX (BCL2 associated X, apoptosis regulator), and total/phosphorylated PKA, CaMKII, ERK, PI3K, and CREB. Also, cells were stained with DAPI and assessed for neurite outgrowth as described above.
Total proteins from CRE-GFP 293 and Aβ-GFP, ∆K280 tauRD-DsRed SH-SY5Y cells were extracted using lysis buffer (50 mM Tris-HCl (pH 8.0), 150 mM NaCl, 1 mM EDTA (pH 8.0), 1 mM EGTA (pH 8.0), 0.1% SDS, 0.5% sodium deoxycholate, 1% Triton X-100) containing phosphatase and protease inhibitor cocktails (Sigma-Aldrich). Protein concentrations were measured using a protein assay kit (Bio-Rad, Hercules, CA, USA), and 20 μg of proteins was separated with 10% SDS-PAGE and blotted onto polyvinylidene difluoride (PVDF) membranes (Sigma-Aldrich). After blocking, the membrane blot was incubated with primary antibody against GFP (1 : 500; Santa Cruz Biotechnology, Santa Cruz, CA, USA), PKA (1 : 1000; R&D Systems, Minneapolis, MN, USA), p-PKA (T197) (1 : 1000; Cell Signaling, Danvers, MA, USA), ERK (1 : 500; Cell Signaling), p-ERK (T202/Y204) (1 : 500; Cell Signaling), CaMKII (1 : 1000; Santa Cruz Biotechnology), p-CaMKII (T286) (1 : 1000; Cell Signaling), CREB (1 : 1000; Santa Cruz Biotechnology), p-CREB (S133) (1 : 1000; Millipore, Billerica, MA, USA), BDNF (1 : 500; Santa Cruz Biotechnology), BCL2 (1 : 500; BioVision), BAX (1 : 500; BioVision), GAPDH (glyceraldehyde-3-phosphate dehydrogenase, as a loading control) (1 : 1000; MDBio, Taipei, Taiwan), or β-tubulin (1 : 1000, Sigma-Aldrich, as a loading control). The immune complexes were visualized using horseradish peroxidase-conjugated goat anti-mouse or goat anti-rabbit IgG antibody (1 : 5000, GeneTex, Irvine, CA, USA) and a chemiluminescent substrate (Millipore).

Aβ42 peptide = molecular target: T1, Aβ42 peptide (Homo sapiens, UniProt P05067); experiment: Thioflavin T assay of Aβ aggregation; type: biochemical; conditions: Aβ42 5 μM, compound 5–20 μM, 37°C 48 h; read-out: Aβ aggregation inhibition EC50 (Thioflavin T)
T1 construct: containing Aβ42 peptide (5 μM); purchased AnaSpec; host or cells: synthetic
Method: In brief, the tested compound (5–20 μM) was added to a buffer solution (150 mM NaCl, 20 mM Tris-HCl (pH 8.0)) containing Aβ42 peptide (5 μM) and incubated at 37°C for 48 h. Thioflavin T (10 μM) (Sigma-Aldrich) then was added, and the mixture was incubated for 5 min at room temperature. Subsequently, the fluorescence intensity was quantified at 420/485 nm of excitation/emission wavelengths using a FLx800 microplate reader (Bio-Tek, Winooski, VT, USA). EC50 was computed as described.

T1 sequence (P05067 672-713 limits assumed): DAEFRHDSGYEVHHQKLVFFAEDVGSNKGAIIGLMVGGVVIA

CN(C)c1ccc(/C=C/C(=O)c2c(O)c3ccccc3oc2=O)cc1 [LM-021, (E)-3-(3-(4-(dimethylamino)phenyl)acryloyl)-4-hydroxy-2H-chromen-2-one]
solubility (physchem): ≥ 100 µM
BAX protein level [1]: decreased
Level of PKA, CaMKII, or ERK [1]: nor LM-021 treatment significantly altered
p-CREB, CREB, pro-BDNF, m-BDNF, and BCL2 protein levels [1]: significantly upregulated
p-PKA, p-CaMKII, and p-ERK protein levels [1]: increased
EC50 (Aβ42 peptide): 14 µM
